The values below come from patent US20090156569A1, “ORAL CONTRACEPTIVE SPRAY” (N.V. Organon, priority 2007, published 2009).

Values after ≈ are worked out from the molar mass of the structure shown. Read-outs that look alike come from different tables or passages of the source.

Data set [1] is described as follows: Solubility of the active ingredients in liquid solutions (Liquids 1-5). The format is physicochemical. Conditions: for solubility: aqueous with cosolvent or surfactant or cyclodextrin. Here is the method:
Solutions were prepared essentially according to the procedure as described in Example 1. The solubility of each one of the active ingredients desogestrel, 3-β-hydroxydesogestrel, 3-keto desogestrel and ethinyl estradiol in these solutions was tested.

On the set-up of data set [2]: species or system human. As to conditions: in vivo. As for the experimental part: Sixteen healthy female subjects were treated with 0.1 ml of the oral spray as described in Example 1 or with Marvelon® tablets (150 μg desogestrel, 30 μg ethinyl estradiol) in a cross over design. The spray was administered sublingually. Marvelon® was ingested. Serum concentration versus time profiles were obtained for etonogestrel and plasma concentration versus time profiles were obtained for ethinyl estradiol. FIGS. 2, 3, 4 and 5 show the average values of the serum/plasma concentrations versus time profiles.
This leads to the conclusion that a lower dose of either etonogestrel, or ethinyl estradiol, or both is possible for oral mucosal administration.

Data set [3] is described as follows: Cross-over pharmacokinetic study: sublingual oral spray (75 μg etonogestrel) versus ingested Cerazette tablet. The format is in vivo, human. Conditions: oral mucosal administration of etonogestrel; FIGS. 6 and 7. Here is the method:
Sixteen healthy female subjects were treated with 0.1 ml of oral spray comprising the liquid as depicted in table 6 to administer 75 μg etonogestrel, or with Cerazette® tablets (75 μg desogestrel) in a cross over design. The spray has been administered sublingually. Cerazette® has been ingested. Serum concentration versus time profiles were obtained for etonogestrel.
This leads to the conclusion that a lower dose of either etonogestrel is possible for oral mucosal administration to achieve a similar pharmacological effect.

For data set [4] the following is noted: exposure of etonogestrel after oral ingestion as its prodrug desogestrel; cited from earlier work.
Where [5] appears, read: Liquid 1: water 25, ethanol 20, glycerol 25, propylene glycol 25, polysorbate 80 5 % v/v, read-out: Solubility in Liquid 1.
[6] abbreviates: Liquid 2: water 25, ethanol 25, glycerol 20, propylene glycol 25, polysorbate 80 5 % v/v, read-out: Solubility in Liquid 2.
Setting [7] is: Liquid 3: water 25, ethanol 30, glycerol 15, propylene glycol 25, polysorbate 80 5 % v/v, read-out: Solubility in Liquid 3.
The mark [8] stands for this setting: Liquid 4: water 25, ethanol 25, glycerol 25, propylene glycol 25, polysorbate 80 0 % v/v, read-out: Solubility in Liquid 4.
The mark [9] stands for this setting: Liquid 5: water 30, ethanol 30, glycerol 25, propylene glycol 15, polysorbate 80 0 % v/v, read-out: Solubility in Liquid 5.

As for `C#C[C@]1(O)CC[C@H]2[C@@H]3CCC4=C[C@@H](O)CC[C@@H]4[C@H]3C(=C)C[C@@]21CC` [3-β-Hydroxy-desogestrel], in data set [1], the “Solubility in Liquid 1” value was “≧8.8 mg/mL”, the “Solubility in Liquid 2” value is given as “≧7.0 mg/mL”, the “Solubility in Liquid 3” value was “≧6.1 mg/mL” and the “Solubility in Liquid 4” value is given as “≧6.9 mg/mL”. In addition, the “Solubility in Liquid 5” value in data set [1] is listed as “≧8.7 mg/mL”.

The term solubility denotes how much of the substance goes into solution per volume. Turning to `C#C[C@]1(O)CC[C@H]2[C@@H]3CCC4=CCCC[C@@H]4[C@H]3C(=C)C[C@@]21CC` [Desogestrel], the solubility in data set [1] (setting [5]) came out at 11300 µg/mL (≈ 36.4 mM); in data set [1] (setting [6]), 12400 µg/mL (≈ 39.9 mM); in data set [1] (setting [7]) it was 13400 µg/mL (≈ 43.2 mM); in data set [1] (setting [8]), 2100 µg/mL (≈ 6.76 mM); in data set [1] (setting [9]), 1500 µg/mL (≈ 4.83 mM).

Take `C#C[C@]1(O)CC[C@H]2[C@@H]3CCc4cc(O)ccc4[C@H]3CC[C@@]21C` [Ethinyl Estradiol]: the “levels of ethinyl estradiol (in plasma) compared to oral ingestion of equivalent amounts using a tablet” value in data set [2] is “much higher levels”. The solubility was ≥ 10900 µg/mL in data set [1] (setting [5]); ≥ 10800 µg/mL in data set [1] (setting [6]); ≥ 14100 µg/mL in data set [1] (setting [7]); 11200 µg/mL (≈ 37.8 mM) in data set [1] (setting [8]); 12400 µg/mL (≈ 41.8 mM) in data set [1] (setting [9]).

As to `C#C[C@]1(O)CC[C@H]2[C@@H]3CCC4=CC(=O)CC[C@@H]4[C@H]3C(=C)C[C@@]21CC` [Etonogestrel, 13-ethyl-11methylene-17β-hydroxy-18,19-dinor-17α-pregnen-3-one], the “levels of etonogestrel (in serum) compared to oral ingestion of equivalent amounts using a tablet” value in data set [2] is “much higher levels”. For the same molecule, the solubility came out at 5500 µg/mL (≈ 17 mM) in data set [1] (setting [5]); 5800 µg/mL (≈ 17.9 mM) in data set [1] (setting [6]); 7300 µg/mL (≈ 22.5 mM) in data set [1] (setting [7]); 4200 µg/mL (≈ 12.9 mM) in data set [1] (setting [8]); 3400 µg/mL (≈ 10.5 mM) in data set [1] (setting [9]). Further, in data set [3], the “levels of etonogestrel (in serum) compared to oral ingestion of an equivalent amount of desogestrel using a tablet” value is “much higher levels”. The oral bioavailability entry in data set [4] is “about 80%”.
